Target: cAMP-dependent protein kinase (PKA) (Homo sapiens, UniProt P22694+P17612+P22612)
Assay: Inhibition of protein kinase A expressed in Escherichia coli

CC(=O)N[C@@H](CC(C)C)C(=O)N[C@@H](CCCN=C(N)N)C(=O)N[C@@H](CCCN=C(N)N)C(=O)N[C@@H](C)C(=O)NC(CNC(=O)CSP(=O)(O)OP(=O)(O)OP(=O)(O)OC[C@H]1O[C@@H](n2cnc3c(N)ncnc32)[C@H](O)[C@@H]1O)C(=O)N[C@@H](CC(C)C)C(=O)NCC(=O)O (stereo partly specified)
Ki: 3.8 µM
